In patent US10842152B2, “Isothiazolo-based bicycles, processes for their preparation and their use as herbicides and/or plant growth regulators” (Bayer CropScience Aktiengesellschaft, priority 2017, dated 2020):

How the values were obtained:
Alopecurus myosuroides = test: Herbicidal effect pre-emergence; assay type: in vivo; conditions: 320 g/ha, visual grading after ca. 3 weeks vs untreated controls
From the text: (§1) Herbicidal activities of the compounds of the formulae (G1) or (G2) according to the invention were investigated against the following harmful plants: • ALOMY=Alopecurus myosuroides • ECHCG=Echinochloa crus-galli • SETVI=Setaria viridis • ABUTH=Abutilon theophrasti • AMARE=Amaranthus retroflexus • PHBPU=Pharbitis purpurea • POLCO=Polygonum convolvulus (=Fallopia convolvulus) • STEME=Stellaria media • VIOTR=Viola tricolor
(§2) Seeds of mono- and dicotyledonous weed plants and crop plants are sown in wood-fiber pots in sandy loam and covered with soil. The compounds according to the invention, formulated in the form of wettable powders (WP) or as emulsifiable concentrates (EC), are then applied to the surface of the covering soil as aqueous suspension or emulsion, with the addition of 0.5% of an additive, at an application rate of 600 l of water/ha (converted).
(§3) Following treatment, the pots are placed in a greenhouse and kept under optimum growth conditions for the test plants. The visual grading of the damage to the test plants is carried out after ca. 3 weeks in comparison to untreated controls (herbicidal effect in percent (%): 100% effect=plants have died off, 0% effect=as control plants).

Amaranthus retroflexus [1] = test: Herbicidal effect pre-emergence; assay type: in vivo; conditions: 320 g/ha, visual grading after ca. 3 weeks vs untreated controls
From the text: as §1, §2, §3

Setaria viridis [2] = test: Herbicidal effect pre-emergence; assay type: in vivo; conditions: 320 g/ha, visual grading after ca. 3 weeks vs untreated controls
From the text: as §1, §2, §3

Stellaria media [3] = test: Herbicidal effect pre-emergence; assay type: in vivo; conditions: 320 g/ha, visual grading after ca. 3 weeks vs untreated controls
From the text: as §1, §2, §3

Viola tricolor [4] = test: Herbicidal effect pre-emergence; assay type: in vivo; conditions: 320 g/ha, visual grading after ca. 3 weeks vs untreated controls
From the text: as §1, §2, §3

MATIN [5] = test: Herbicidal effect pre-emergence; assay type: in vivo, Matricaria inodora; conditions: 320 g/ha, visual grading after ca. 3 weeks vs untreated controls
From the text: as §2, §3

Amaranthus retroflexus [6] = test: Herbicidal effect post-emergence; assay type: in vivo; conditions: 320 g/ha
From the text: as §1
(§4) Seeds of mono- and dicotyledonous weed plants and crop plants are sown in wood-fiber pots in sandy loam, covered with soil and grown in a greenhouse under controlled growth conditions. 2 to 3 weeks after sowing, the test plants are sprayed in the single-leaf stage. The compounds according to the invention, formulated in form of wettable powders (WP) or as emulsifiable concentrates (EC), are then sprayed onto the green plant parts as aqueous suspension or emulsion, with the addition of 0.5% of an additive, at an application rate of 600 l of water/ha (converted). After the test plants had been in the greenhouse for ca. 3 weeks under optimum growth conditions, the effect of the preparations is assessed visually in comparison with untreated controls (herbicidal effect in percent (%): 100% effect=plants have died off, 0% effect=as control plants).

Pharbitis purpurea = test: Herbicidal effect post-emergence; assay type: in vivo; conditions: 320 g/ha, visual grading after ca. 3 weeks (Table 7)
From the text: as §1, §4

[7] = test system: Polygonum convolvulus (=Fallopia convolvulus); test: Herbicidal effect post-emergence; assay type: in vivo; conditions: 320 g/ha, visual grading after ca. 3 weeks (Table 7)
From the text: as §1, §4

Setaria viridis [8] = test: Herbicidal effect post-emergence; assay type: in vivo; conditions: 320 g/ha
From the text: as §1, §4

Stellaria media [9] = test: Herbicidal effect post-emergence; assay type: in vivo; conditions: 320 g/ha, visual grading after ca. 3 weeks (Table 7)
From the text: as §1, §4

Viola tricolor [10] = test: Herbicidal effect post-emergence; assay type: in vivo; conditions: 320 g/ha
From the text: as §1, §4

MATIN [11] = test: Herbicidal effect post-emergence; assay type: in vivo, Matricaria inodora; conditions: 320 g/ha, visual grading after ca. 3 weeks (Table 7)
From the text: as §4

[12] = visual grading after ca. 3 weeks (Table 7)
[13] = visual grading after ca. 3 weeks (Table 9)

Compound | herbicidal effect ALOMY (Alopecurus myosuroides) | herbicidal effect AMARE (Amaranthus retroflexus [1]) | herbicidal effect SETVI (Setaria viridis [2]) | herbicidal effect STEME (Stellaria media [3]) | herbicidal effect VIOTR (Viola tricolor [4]) | herbicidal effect MATIN (MATIN [5]) | herbicidal effect AMARE (Amaranthus retroflexus [6]; [12]) | herbicidal effect PHBPU (Pharbitis purpurea) | herbicidal effect POLCO [7] | herbicidal effect SETVI (Setaria viridis [8]; [12]) | herbicidal effect STEME (Stellaria media [9]) | herbicidal effect VIOTR (Viola tricolor [10]; [12]) | herbicidal effect MATIN (MATIN [11]) | herbicidal effect AMARE (Amaranthus retroflexus [6]; [13]) | herbicidal effect SETVI (Setaria viridis [8]; [13]) | herbicidal effect VIOTR (Viola tricolor [10]; [13])
Nc1nsc2c(=O)n(CC3CCCCC3Cl)cc(Cl)c12 (racemic) [Example I-156] | 100% | 100% | 100% | 100% | 100% | 100% | 100% | 100% | 100% | 100% | 100% | 100% | 80% | – | – | –
O=C(Nc1nsc2c(=O)n(CC3CCCCC3Cl)cc(Cl)c12)C(F)F (racemic) [Example I-160] | 100% | 100% | 100% | 100% | 100% | 100% | 100% | 100% | 100% | 100% | 100% | 100% | 80% | – | – | –
O=C(Nc1nsc2c(=O)n(CC3CCCCC3Cl)cc(Cl)c12)C(F)(F)C(F)(F)F (racemic) [Example I-161] | 100% | 100% | 100% | 100% | 100% | 100% | 100% | 100% | 100% | 100% | 100% | 100% | 80% | – | – | –
O=C(Nc1nsc2c(=O)n(CC3CCCCC3Cl)cc(Cl)c12)C(F)(F)F (racemic) [Example I-171] | 100% | 100% | 100% | 100% | 100% | 100% | 100% | 100% | 100% | 100% | 100% | 100% | 90% | – | – | –
COCc1cc2c(N)nsc2c(=O)n1CC1CCCCC1 [Example I-028] | 90% | 90% | 100% | 100% | 100% | 90% | – | – | – | – | – | – | – | – | – | –
CCC(=O)Nc1nsc2c(=O)n(CC3CCCCC3)c(CC)cc12 [Example I-029] | 90% | 100% | 90% | 90% | 100% | 90% | – | – | – | – | – | – | – | – | – | –
O=C(Nc1nsc2c(=O)n(CC3CCCCC3)c(CO)cc12)C(F)(F)C(F)(F)F [Example I-047] | 80% | 100% | 90% | 100% | 100% | 90% | – | – | – | – | – | – | – | 90% | 90% | 100%
CCC(=O)Nc1nsc2c(=O)n(CC3CCCCC3)c(CO)cc12 [Example I-048] | 80% | 100% | 100% | 100% | 100% | 90% | – | – | – | – | – | – | – | 100% | 100% | 100%
Nc1nsc2c(=O)n(CC3CCCCC3)cc(Br)c12 [Example I-054, 3-amino-4-bromo-6-(cyclohexylmethyl)isothiazolo[5,4-c]pyridin-7-one] | 90% | 100% | 100% | 100% | 100% | 100% | – | – | – | – | – | – | – | 100% | 100% | 100%
O=C(Nc1nsc2c(=O)n(CC3CCCCC3)cc(Br)c12)C(F)(F)C(F)(F)F [Example I-077] | 100% | 100% | 100% | 100% | 100% | 90% | – | – | – | – | – | – | – | 100% | 90% | 90%
O=C(Nc1nsc2c(=O)n(CC3CCCCC3)cc(Cl)c12)C(F)(F)C(F)(F)F [Example I-081] | 100% | 100% | 100% | 100% | 100% | 100% | – | – | – | – | – | – | – | 100% | 100% | 100%
O=C(Nc1nsc2c(=O)n(CC3CCCCC3)cc(Cl)c12)C(F)(F)F [Example I-086] | 100% | 100% | 100% | 100% | 100% | 100% | – | – | – | – | – | – | – | 100% | 100% | 100%
O=C(Nc1nsc2c(=O)n(CC3CCCCC3)cc(Br)c12)C(F)(F)F [Example I-088] | 100% | 100% | 100% | 100% | 100% | 100% | – | – | – | – | – | – | – | 100% | 100% | 100%
CC(C)(C)OC(=O)OC1CN(CC2CCCCC2)C(=O)c2snc(N)c21 (stereo not shown) [Example I-138] | 100% | 100% | 100% | 100% | 100% | 90% | – | – | – | – | – | – | – | 100% | 80% | 100%
